Test results taken from patent US10307411B2, “Use of cotinine in treating or preventing neurogenesis deficits and enhancing neurogenesis” (Department of Veterans Affairs, priority 2014, dated 2019).

Experiments:
[1] = administered in the drinking water for 78 weeks; rats initiated with FANFT; cited from earlier work
[2] = system: neurogenesis genes in the hippocampus of mice; assay: Neurogenesis and neural stem cell RT-PCR array on hippocampus of mice subjected to forced swimming stress; format: in vivo
Source text: Two-month-old male C57BU6J mice (The Jackson Laboratory, Bar Harbor, Me.), weighing 25-30 g were maintained on a 12-hours light/dark cycle (light on at 07:00) with ad libitum access to food and water and maintained at a regulated temperature of 25±1″C. Upon arrival mice were group-housed and acclimated for 7 days before any intervention.
Mice were randomly divided into three groups as follows: group 1 controls that were not exposed to stress (NES) and treated with vehicle (phosphate buffered saline, PBS); group 2 controls subjected to forced swimming stress (FSB) and treated with vehicle; group 3 subjected to forced swimming stress and treated with cotinine (FSA).
Cotinine ((5S)-1-methyl-5-(3-pyridyl) pyrrolidin-2-one; Sigma-Aldrich Corporation, St. Louis, Mo., USA) solutions were prepared by dissolving the powdered compound in sterile phosphate buffered saline (PBS), and vehicle (PBS). Mice were treated with vehicle or cotinine (5 mg/kg) via gavage. […] All investigators were blind to treatment groups and doses were chosen based on previously studies (Zeitlin, et al., (2012) Cotinine enhances the extinction of contextual fear memory and reduces anxiety after fear conditioning. Behav Brain Res, 228, 284-293.). Treatments were administered for 7 days before the induction of stress. For all animals, treatment continued from the onset of treatment until euthanasia.
To induce chronic stress, mice were subjected to repetitive forced swimming (FS) for six consecutive days, for six minutes each day, as described previously (Furukawa-Hibi, et al., (2011) The hydrophobic dipeptide Leu-lie inhibits immobility induced by repeated forced swimming via the induction of BDNF. Behav Brain Res. 2011 Jul. 7; 220(2):271-280). Each mouse was placed in an inescapable transparent plastic cylinder (40 centimeters (cm) high×20 cm in diameter) filled with water to a depth of 30 cm, for six minutes. Water temperature was maintained at 24-25° C. and water was changed between all trials. In all cases, following exposure, animals were retrieved, dried with a hand towel and returned to their home cages. Mice assigned to NES control group were removed from the animal housing facility and taken to the behavioral testing room during the same period of time than FS mice, but remained in their home cages during the FS period. In all experiments, no mice needed assistance to avoid drowning.
Following behavioral experimentation, euthanasia was performed via cervical dislocation under anesthesia with isofluorane (4% induction, 2% maintenance) by investigators not assigned to prior work with the mice blinded to the treatments. Whole brains were collected and immediately stored frozen at −80° C.
The hippocampi were dissected on ice and placed into RNAlater tubes (Life Technologies; Thermo Fisher Scientific, Waltham, Mass.). RNAlater is a proprietary solution which protects RNA in tissue samples from degradation to allow for analysis at a later date. RNase free conditions were created and maintained throughout the procedure by washing labware in a 0.1% DEPC solution followed by rinsing with RNase free water. Total RNA extraction and purification was performed using RNeasy Lipid Tissue Extraction Kit (Qiagen N.V., Venlon NL). Sample homogenization was performed using Kontes Pellet Pestle Cordless Motor and/or 20 gauge needle and syringe. Samples were extracted using a Qiazol/Chloroform extraction. The samples were purified on an RNeasy spin column using multiple washes. An on-column DNase incubation was performed in order to remove contaminating DNA. The entire extraction and purification step was performed twice to remove all contaminating DNA for samples ran on the neurogenesis arrays. Samples were eluted in RNase free water.
Nucleic acid quantification was performed on the RNA, to determine how many microliters of sample to add to the cDNA reaction, as the reaction requires a specific concentration of RNA to achieve optimal results. […]

[3] = Porsolt's forced swim test, depressive-like behavior in rats subjected to CMF chemotherapy; format: in vivo, Wistar female rats; details: cotinine 5 mg/kg oral
Description: Wistar female rats (2-4 months of age, 200-300 g) (n=10/group) were obtained from Harlan laboratories. Rats were housed in pairs, kept at 12 h light/12 h dark cycle and maintained in an air-conditioned room at a temperature of 21±1° C. and relative humidity of 60±10%. Food and water were available ad libitum. All rats were acclimated to the Veterinary Medical Unit for 1 week and handled daily. Weight was recorded every 2 days to assess for dehydration induced by the chemotherapy regime. […]
This task was chosen to determine the effect of cotinine on depressive-like behavior is one of the more broadly used to assess potential antidepressant effects of drugs (Porsolt R D, Bertin A, Jalfre M (1977) Behavioral despair in mice: a primary screening test for antidepressants. Arch Int Pharmacodyn Ther 229(2):327-336; Castagne V, Moser P, Roux S, Porsolt R D (2010) Rodent models of depression: forced swim and tail suspension behavioral despair tests in rats and mice. Curr Protoc Neurosci 49:5.8.1-5.8.14). […] The freezing behavior, during 6-min trials, was recorded on video and scored by investigators blinded to the treatment arms. The immobility (freezing) time was recorded during a 6-min forced swim (FS) trial. […] The time in seconds (sec) spent by the mice immobile was scored by two investigators blind to the mice's treatments. […]

[4] = stressed mice treated with cotinine compared to stressed mice treated with vehicle

In the case of `CN1C(=O)CC[C@H]1c1cccnc1` [cotinine, (5S)-1-methyl-5-(3-pyridyl) pyrrolidin-2-one], the “carcinogenicity / promotion of urinary bladder tumors” value [1] is listed as “neither carcinogenic nor promoted urinary bladder tumors”, the “decrease in share of down-regulated neurogenesis genes” value ([2]; FSA versus stressed vehicle-treated, each compared to non-stressed mice) is listed as 17% and the neurogenesis genes down-regulated ([2]; forced swimming stress + cotinine (FSA) compared to mice not exposed to stress) is listed as 56%. For the same compound, the “neurogenesis genes analyzed that were up regulated” value ([2]; hippocampi from cotinine-treated stressed mice compared to vehicle-treated stressed mice) was 67%, the “VEGFa mRNA expression, RT-PCR assay” value ([2]; hippocampus of cotinine-treated FS mice compared to vehicle-treated FS mice (p<0.01)) was “up-regulated” and the “number of neurogenesis genes with differential regulation” value ([2]; results from all three comparisons, 1.3-fold cut-off with opposite effect by cotinine) was 15 genes. For the same compound, the “Errb2 expression up regulation” value ([2]; stressed mice treated with cotinine compared to stress control mice) was 1.3 fold, the “Artn expression up regulation” value [2, 4] was 1.2 fold and the “EGF expression up regulation” value [2, 4] was 1.5 fold. For the same compound, the “Gdnf expression up regulation” value [2, 4] was 2.0 fold, the “VEGFa expression up regulation” value [2, 4] was 1.3 fold and the “depressive-like behavior (immobility), chemotherapy-treated vs chemotherapy and cotinine-treated” value ([3]; CMF-treated rats, p<0.01) was “significant reduction”. For the same compound, the “depressive-like behavior (immobility), vehicle-treated vs cotinine-treated” value ([3]; rats without chemotherapy, p<0.001) was “significant reduction”.
